The target of data set [1] is T1, NADPH oxidase 2 (Homo sapiens, UniProt P04839).
T1 sequence (P04839 whole entry): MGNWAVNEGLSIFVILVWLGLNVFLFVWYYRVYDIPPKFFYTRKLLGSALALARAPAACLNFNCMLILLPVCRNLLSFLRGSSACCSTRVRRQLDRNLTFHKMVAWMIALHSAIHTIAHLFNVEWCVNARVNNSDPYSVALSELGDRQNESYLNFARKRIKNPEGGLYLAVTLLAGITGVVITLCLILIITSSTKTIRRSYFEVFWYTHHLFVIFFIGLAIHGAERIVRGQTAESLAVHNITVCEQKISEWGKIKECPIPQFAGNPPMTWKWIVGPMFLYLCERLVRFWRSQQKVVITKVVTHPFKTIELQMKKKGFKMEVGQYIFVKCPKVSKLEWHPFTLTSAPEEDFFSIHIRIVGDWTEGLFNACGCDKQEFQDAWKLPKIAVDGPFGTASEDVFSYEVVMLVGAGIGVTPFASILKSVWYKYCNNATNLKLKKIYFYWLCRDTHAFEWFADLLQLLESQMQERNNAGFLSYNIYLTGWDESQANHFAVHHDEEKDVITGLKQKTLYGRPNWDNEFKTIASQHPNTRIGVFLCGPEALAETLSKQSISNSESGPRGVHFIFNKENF
Nature of the data set: Inhibition of human NOX2.

In another data set the target is T2, NADPH oxidase 5 (Homo sapiens, UniProt Q96PH1).
T2 sequence (Q96PH1 whole entry): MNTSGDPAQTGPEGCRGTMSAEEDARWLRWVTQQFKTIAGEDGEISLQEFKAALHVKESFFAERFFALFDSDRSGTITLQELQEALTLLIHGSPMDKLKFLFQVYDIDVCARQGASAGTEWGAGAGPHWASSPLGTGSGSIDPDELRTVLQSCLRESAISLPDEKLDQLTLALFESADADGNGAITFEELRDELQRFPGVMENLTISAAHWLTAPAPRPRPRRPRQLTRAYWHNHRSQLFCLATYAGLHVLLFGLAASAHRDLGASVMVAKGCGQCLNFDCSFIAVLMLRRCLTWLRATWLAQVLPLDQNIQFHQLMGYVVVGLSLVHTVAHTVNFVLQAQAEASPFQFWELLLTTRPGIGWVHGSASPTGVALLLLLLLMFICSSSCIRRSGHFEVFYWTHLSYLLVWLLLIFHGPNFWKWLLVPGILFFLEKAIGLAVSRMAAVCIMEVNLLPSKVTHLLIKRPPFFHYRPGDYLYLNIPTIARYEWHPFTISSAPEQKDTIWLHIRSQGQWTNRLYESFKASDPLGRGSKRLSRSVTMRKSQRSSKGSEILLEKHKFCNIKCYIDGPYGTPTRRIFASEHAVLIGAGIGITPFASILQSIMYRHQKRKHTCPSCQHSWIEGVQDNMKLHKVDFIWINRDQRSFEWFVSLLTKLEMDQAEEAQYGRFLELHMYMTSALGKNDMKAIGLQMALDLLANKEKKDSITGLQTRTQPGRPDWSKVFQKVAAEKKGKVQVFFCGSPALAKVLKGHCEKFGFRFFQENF
Nature of the data set: Inhibition of human NOX5.

In a further data set the target is T3, NADPH oxidase 1 (Homo sapiens, UniProt Q9Y5S8).
T3 sequence (Q9Y5S8 whole entry): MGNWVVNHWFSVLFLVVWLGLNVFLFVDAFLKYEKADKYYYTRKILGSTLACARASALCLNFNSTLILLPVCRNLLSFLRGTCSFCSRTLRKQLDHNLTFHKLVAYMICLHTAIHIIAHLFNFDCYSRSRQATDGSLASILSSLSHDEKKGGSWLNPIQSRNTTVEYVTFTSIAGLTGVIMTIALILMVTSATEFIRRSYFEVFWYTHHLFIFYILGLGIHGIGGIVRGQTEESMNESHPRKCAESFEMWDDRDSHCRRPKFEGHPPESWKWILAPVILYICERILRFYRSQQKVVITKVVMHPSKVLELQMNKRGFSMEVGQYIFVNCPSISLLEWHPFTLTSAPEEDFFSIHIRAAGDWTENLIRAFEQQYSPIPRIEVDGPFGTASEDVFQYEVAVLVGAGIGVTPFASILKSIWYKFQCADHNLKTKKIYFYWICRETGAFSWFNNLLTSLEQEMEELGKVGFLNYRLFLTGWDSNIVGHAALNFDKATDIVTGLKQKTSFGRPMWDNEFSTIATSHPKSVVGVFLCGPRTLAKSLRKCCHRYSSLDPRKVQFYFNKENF
Nature of the data set: Inhibition of human NOX1.

The target of a further data set is T4, NADPH oxidase 4 (Homo sapiens, UniProt Q9NPH5).
T4 sequence (Q9NPH5 whole entry): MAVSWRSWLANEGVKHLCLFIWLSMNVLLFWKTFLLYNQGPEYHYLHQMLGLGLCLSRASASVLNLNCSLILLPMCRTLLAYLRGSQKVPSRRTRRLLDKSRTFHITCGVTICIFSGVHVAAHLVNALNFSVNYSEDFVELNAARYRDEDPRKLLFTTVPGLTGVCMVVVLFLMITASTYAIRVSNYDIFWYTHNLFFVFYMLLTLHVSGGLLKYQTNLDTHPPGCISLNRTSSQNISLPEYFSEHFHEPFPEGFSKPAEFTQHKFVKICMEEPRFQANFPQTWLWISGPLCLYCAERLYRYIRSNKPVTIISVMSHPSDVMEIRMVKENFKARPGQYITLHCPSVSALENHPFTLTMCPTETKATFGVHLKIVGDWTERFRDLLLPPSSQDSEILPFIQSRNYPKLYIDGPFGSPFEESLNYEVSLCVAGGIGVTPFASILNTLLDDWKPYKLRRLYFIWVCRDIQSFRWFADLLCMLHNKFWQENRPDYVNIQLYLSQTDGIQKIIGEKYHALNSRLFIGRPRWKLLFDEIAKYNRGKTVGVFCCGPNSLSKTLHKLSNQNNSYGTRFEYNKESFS
Description: Inhibition of human NOX4.

Data set [2] concerns the target T1, NADPH oxidase 2. Description: Inhibition of human NOX2 by cell based assay.
Data set [3] has as its system BV-2. Nature of the data set: Neuroprotective activity against LPS/IFN-gamma induced mouse BV-2 cells assessed as reduction in ROS level by measuring change in fluorescence intensity at 10 uM incubated for 48 hrs by CellROX reagent based fluorescence analysis. The format is functional, cell-based.
A further data set concerns the target Albumin (Bos taurus, UniProt P02769). Nature of the data set: Binding affinity to bovine serum albumin 5 to 20 uM incubated for 30 mins by mass spectrometry analysis. The format is ADME. As to conditions: cattle, isolated protein, 0.5 h, dose 5-20 µM.
Data set [4] has as its system BV-2. Description: Neuroprotective activity against LPS/IFN-gamma induced mouse BV-2 cells assessed as effect on cell viability at 10 uM incubated for 48 hrs by MTT assay. The class given is functional, cell-based. (In general: Tetrazolium assays rely on reduction of a dye to a coloured formazan, in cell work by metabolically active cells.)

Broadly, the IC50 is the concentration needed to halve the response being measured. The low end stands for higher potency, the high end for lower potency. Broadly, the EC50 is the concentration giving half of the maximal effect. A high value points to a less potent agent.

The source made the active and inactive calls. The calls are words filed in the database; no cut-off is given here.

Sequence of Albumin (P02769 whole entry): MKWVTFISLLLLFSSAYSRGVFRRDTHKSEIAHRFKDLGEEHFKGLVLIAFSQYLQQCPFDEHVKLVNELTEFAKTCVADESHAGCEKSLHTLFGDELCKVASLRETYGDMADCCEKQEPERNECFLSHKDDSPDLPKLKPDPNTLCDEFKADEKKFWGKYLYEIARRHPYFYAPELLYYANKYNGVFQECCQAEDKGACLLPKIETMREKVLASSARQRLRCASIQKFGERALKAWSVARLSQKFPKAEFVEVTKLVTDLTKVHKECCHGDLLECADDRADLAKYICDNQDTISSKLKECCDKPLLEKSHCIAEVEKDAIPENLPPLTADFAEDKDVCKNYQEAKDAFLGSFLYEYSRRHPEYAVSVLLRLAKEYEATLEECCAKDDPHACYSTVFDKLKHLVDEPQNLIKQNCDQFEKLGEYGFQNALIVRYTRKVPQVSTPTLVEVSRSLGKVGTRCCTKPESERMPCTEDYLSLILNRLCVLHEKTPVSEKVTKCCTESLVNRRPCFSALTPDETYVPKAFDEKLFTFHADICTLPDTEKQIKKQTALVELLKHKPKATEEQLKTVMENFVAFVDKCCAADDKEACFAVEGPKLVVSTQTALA

For `c1ccc(-c2cc(NC3CCNCC3)nc3ccccc23)cc1`, the IC50 came out at 7.7 µM at NADPH oxidase 2 [1], 28 µM against NADPH oxidase 5, 71.2 µM on NADPH oxidase 1 and 81.2 µM against NADPH oxidase 4. Further, the response at NADPH oxidase 2 [2] was half-maximal at 5.7 µM (EC50).
In the case of `c1ccc(Cn2nnc3c(Sc4nc5ccccc5o4)ncnc32)cc1`, the result with BV-2 [3] was Active.
Turning to `C#CCN(C)Cc1ccc(Cn2nnc3c(Sc4nc5ccccc5o4)ncnc32)cc1`, the result with BV-2 [3] and in the data set with BV-2 [4] was Active. In addition, the Activity result at Albumin was “Not_active”.
For the compound `C#CCN[C@@H]1CCc2ccccc21`, in the data set on BV-2 [4], the outcome was Active.
As to `Clc1ncnc2c1nnn2Cc1ccccc1`, the half-inhibitory concentration (IC50) amounted to 5.1 µM on NADPH oxidase 2 [1] and 5.7 µM against NADPH oxidase 4.
Consider `O=C1c2ccccc2-c2cc(N3CCC4(CC3)OCCO4)nc3cccc1c23`, for which the IC50 is 5.1 µM on NADPH oxidase 2 [1] and 5.7 µM on NADPH oxidase 4. Besides, the midpoint of the response at NADPH oxidase 2 [2], the EC50, lay at 2.1 µM.
